Measurements from article PMC12213745, “Compounds from Cyclocarya paliurus leaves inhibit binary division of methicillin-resistant Staphylococcus aureus by disrupting FtsZ dynamic” (Frontiers in Microbiology, 2025).
“And” between values parts separate entries of the source, which are not always exact repeats. Equal entries are not always repeated. Where two headings read alike, the source gives them in different places.

Experiments:
S. aureus ATCC25923 = assay: SEM analysis, cell long axis; format: cell-based, Staphylococcus aureus; details: 2 × MIC, 2 h, mean ± SD, PBS control 0.52 ± 0.05
Method: Scanning electron microscopy (SEM) was used to observe the morphological changes in bacterial cells treated with the isolated compounds. S. aureus ATCC 25923 and MRSA-4 were grown in MHB to mid-log phase (OD600 = 0.4–0.6) as previously described. The bacteria cultures were treated with AA, MA, or UA at 2 × MIC for 2 h at 37°C with shaking at 150 rpm. Untreated cultures (PBS group) served as the growth control. After incubation, bacterial cells were harvested by centrifugation and washed three times with PBS (pH 7.2). Coverslips (8 mm diameter) were cleaned with absolute ethanol under ultrasonication, air-dried, immersed in 0.1% (w/v) chitosan solution (dissolved in 1% acetic acid) for 5 s, and air-dried again at room temperature ([Su et al., 2022]). A 25 μL aliquot of the washed bacterial suspension was added to each coverslip and allowed to adhere for 1 h at room temperature. Adhered cells were fixed with 1 mL of 2.5% (v/v) glutaraldehyde at 4°C overnight. Fixed samples were rinsed 2–3 times with PBS (5 min per rinse), then dehydrated through a graded ethanol series: 50, 70, and 90% ethanol (each once for 5 min), followed by 100% ethanol (three times for 5 min each). After dehydration, samples were air-dried overnight at room temperature. SEM imaging was performed using an EVO 10 scanning electron microscope (Zeiss, Jena, Germany). Cell long-axis statistical analysis was conducted using ImageJ software (Version 1.42q, National Institutes of Health, MD, USA).
Having established the antibacterial activity of AA, MA, and UA, we next examined their effects on bacterial morphology. We employed SEM to examine the alterations induced by these compounds in S. aureus ATCC25923 and MRSA-4. Bacterial cultures were treated with AA, MA, or UA at 2 × MIC for 2 h, while untreated (PBS group) cultures served as negative controls. […] In PBS groups, both S. aureus ATCC25923 and MRSA-4 maintained typical spherical morphology with smooth and intact surfaces.

MRSA-4 = assay: SIM analysis of Z-ring assembly (FtsZ immunostaining); format: cell-based, Methicillin-resistant S. aureus; details: 1 × MIC, 4 h
Method: MRSA-4 was cultured in MHB at 37°C to mid-logarithmic phase and subsequently treated with AA, MA, or UA at concentration of 1 × MIC, or with PBS as a control, for 4 h at 37°C. Following treatment, cells were harvested by centrifugation, washed once with PBS, and fixed with 4% (w/v) paraformaldehyde in PBS for 15 min at room temperature. Fixed cells were then washed twice with PBS. The pellets were resuspended in 90 μL GTE buffer (50 mM glucose, 25 mM Tris–HCl, pH 8.0, 10 mM EDTA) containing 10 μL lysozyme (3 mg/mL) and incubated for 3 min at room temperature. The suspension was applied onto poly-L-lysine-coated glass slides and allowed to adhere. After removing excess liquid, the slides were blocked with PBS containing 2% (w/v) BSA and 0.1% (v/v) Tween-20 for 15 min. Slides were incubated overnight at 4°C with polyclonal rabbit anti-FtsZ primary antibody, followed by three washes with PBST (PBS containing 0.1% Tween-20). Alexa Fluor 488-conjugated goat anti-rabbit IgG as the secondary antibody was then applied and incubated for 1 h at room temperature in the dark. After washing, nuclei were stained with DAPI for 3–5 min, followed by 2–3 times PBS washes to remove excess stain. Coverslips were mounted with 50% (v/v) glycerol in PBS and sealed with nail polish. Z-ring structures were visualized using structured illumination microscopy (N-SIM S, Nikon, Tokyo, Japan).
Given that septum formation is orchestrated by the FtsZ-based Z-ring, we next examined whether AA, MA, and UA affect Z-ring assembly. Structured illumination microscopy (SIM) was employed to visualize FtsZ localization in MRSA-4 cells treated with each compound at 1 × MIC for 4 h.

SaFtsZ [1] = target: T1, SaFtsZ (Staphylococcus aureus, UniProt P0A031); assay: FtsZ polymerization assay (A360); format: biochemical; details: 10 μM SaFtsZ; 0.25 × and 0.5 × MIC; vs DMSO control
T1 construct: purchased Cytoskeleton, Inc. FTZ02
T1 sequence (P0A031 1-390): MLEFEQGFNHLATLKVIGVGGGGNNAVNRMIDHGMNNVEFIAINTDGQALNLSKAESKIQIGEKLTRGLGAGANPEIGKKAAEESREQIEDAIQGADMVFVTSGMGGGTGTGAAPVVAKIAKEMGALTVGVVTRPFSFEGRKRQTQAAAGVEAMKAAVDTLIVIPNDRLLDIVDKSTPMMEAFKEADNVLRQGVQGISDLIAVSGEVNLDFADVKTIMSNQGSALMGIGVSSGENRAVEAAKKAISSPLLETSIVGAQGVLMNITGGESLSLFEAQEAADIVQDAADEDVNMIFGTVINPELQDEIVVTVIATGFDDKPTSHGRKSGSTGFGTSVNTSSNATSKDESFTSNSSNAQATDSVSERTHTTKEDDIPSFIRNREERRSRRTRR
Method: To assess the effects of AA, MA, and UA on FtsZ polymerization, an in vitro FtsZ polymerization assay was performed. […] Polymerization was initiated by the addition of polymerization buffer components, bringing the final concentrations to 250 mM KCl and 5 mM MgCl2 Absorbance at 360 nm (A360) was monitored for 5 min to establish a stable baseline. GTP was then added to a final concentration of 1 mM. Polymerization was tracked by measuring A360 for 30 min using a microplate reader (SpectraMax i3x, Molecular Devices, CA, USA).
To determine whether the disruptions of Z-ring were due to direct effects on FtsZ polymerization, we performed in vitro polymerization assays. FtsZ polymerization was assessed by monitoring the time-dependent increase in A360 upon induction using a microplate reader. Briefly, 10 μM SaFtsZ was pre-incubated with AA, MA, UA or DMSO, and polymerization was initiated by adding K^+, Mg^2+, and GTP.

SaFtsZ [2] = target: T1, SaFtsZ; assay: Surface plasmon resonance analysis; format: binding, S. aureus; details: SPR, immobilized SaFtsZ, 25°C, steady-state
Method: SPR analysis was performed using a Biacore X100 system (Cytiva, USA) equipped with a CM5 sensor chip at 25°C. SaFtsZ protein was immobilized onto the chip surface via standard amine coupling. Briefly, flow cells 1 (Fc1) and 2 (Fc2) were activated with a 1:1 mixture of 0.4 M EDC and 0.1 M NHS for 7 min. The SaFtsZ protein was diluted to 40 μg/mL in 0.1 M sodium acetate buffer (pH 4.0) and immobilized onto Fc2. The response units (RU) reaching an immobilization level of approximately 4693.2. Unreacted sites in both flow cells were blocked with ethanolamine for 7 min. Subsequently, analyte solutions containing test compounds at varying concentrations were injected over both flow cells, and binding responses were monitored in real time. Data analysis was performed using Biacore Evaluation Software v2.0.2.
We first performed SPR spectroscopy to experimentally measure the binding affinities of AA, MA, and UA for immobilized SaFtsZ protein.

[3] = read-out: equilibrium dissociation constant (Kd)

SMILES | length of long axis of cells (S. aureus ATCC25923) [μm] | FtsZ localization / Z-ring formation (SIM) (MRSA-4) | effect on FtsZ polymerization (A360) (SaFtsZ [1]) | Kd (SaFtsZ [2]; equilibrium dissociation constant (Kd)) [nM] | Kd (SaFtsZ [2]; [3])
C[C@H]1[C@H](C)CC[C@]2(C(=O)O)CC[C@]3(C)C(=CC[C@@H]4[C@@]5(C)C[C@@H](O)[C@H](O)[C@@](C)(CO)[C@@H]5CC[C@]43C)[C@H]12 [AA, asiatic acid] | 0.78 ± 0.06 | aberrant FtsZ localization | significantly enhanced FtsZ polymerization | 2400 | –
CC1(C)CC[C@]2(C(=O)O)CC[C@]3(C)C(=CC[C@@H]4[C@@]5(C)C[C@@H](O)[C@H](O)C(C)(C)[C@@H]5CC[C@]43C)[C@@H]2C1 [MA, maslinic acid] | 0.78 ± 0.07 | aberrant FtsZ localization | markedly inhibited FtsZ polymerization | – | 9800 nM and 9760 nM
C[C@H]1[C@H](C)CC[C@]2(C(=O)O)CC[C@]3(C)C(=CC[C@@H]4[C@@]5(C)CC[C@H](O)C(C)(C)[C@@H]5CC[C@]43C)[C@H]12 [UA, ursolic acid] | 0.75 ± 0.05 | aberrant FtsZ localization | markedly inhibited FtsZ polymerization | – | 700 nM and 663 nM
